In brackets after ≈: the same amount, converted by molar mass.

MIC data for 22 molecules are collected here from ChEMBL document CHEMBL4627328, “Synthesis and in vitro evaluation of antimycobacterial and cytotoxic activity of new α,β-unsaturated amide, oxazoline and oxazole derivatives from l-serine” (Bioorg Med Chem Lett, 2020).

The subject of this assay is Mycobacterium tuberculosis. Kind of assay: Antimycobacterial activity against multidrug resistant Mycobacterium tuberculosis G122 incubated for 5 days by alamar blue based colorimetric assay. The format is functional. To be noted: G122, 120 h.
One may read the MIC as the least concentration at which growth counts as inhibited. Take `COC(=O)[C@H](COC(=O)/C=C/c1ccccc1)NC(=O)/C=C/c1ccccc1`: the MIC was > 264 µM.

In the case of `COC(=O)c1coc(/C=C/c2ccc(F)cc2)n1`, the MIC came out at 50.5 µM (≈ 12.5 µg/mL).

With `CO[C@H]1/C=C/O[C@@]2(C)Oc3c(C)c(O)c4c(O)c(c(/C=N/N5CCN(C)CC5)c(O)c4c3C2=O)NC(=O)/C(C)=C\C=C\[C@H](C)[C@H](O)[C@@H](C)[C@@H](O)[C@@H](C)[C@H](OC(C)=O)[C@@H]1C` [RIFAMPIN], the MIC amounted to 0.23 µM (≈ 0.189 µg/mL).

In turn, `COC(=O)[C@@H]1COC(/C=C/c2ccc(OC)cc2)=N1` showed an MIC of 47.8 µM (≈ 12.5 µg/mL).

As for `COC(=O)[C@H](COC(=O)/C=C/c1ccc(F)cc1)NC(=O)/C=C/c1ccc(F)cc1`, the MIC is > 241 µM.

With `COC(=O)[C@H](CO)NC(=O)/C=C/c1ccc(C)cc1`, the MIC was > 380 µM.

Consider `COC(=O)[C@H](COC(=O)/C=C/c1ccc(OC)cc1)NC(=O)/C=C/c1ccc(OC)cc1`, for which the MIC was > 228 µM.

With `COC(=O)c1coc(/C=C/c2ccccc2)n1`, the MIC was determined as 54.5 µM (≈ 12.5 µg/mL).

In the case of `COC(=O)c1coc(/C=C/c2ccc(OC)cc2)n1`, the MIC was 48.2 µM (≈ 12.5 µg/mL).

`COC(=O)[C@@H]1COC(/C=C/c2ccc(F)cc2)=N1` came in with an MIC of 100 µM (≈ 25 µg/mL).

For `O=C(/C=C/c1ccc(F)cc1)O/C(=N/C1CCCCC1)NC1CCCCC1`, the MIC is > 268 µM.

`COC(=O)[C@@H]1COC(/C=C/c2ccc(C)cc2)=N1` gave an MIC of 50.9 µM (≈ 12.5 µg/mL).

`Cc1ccc(/C=C/C(=O)O/C(=N/C2CCCCC2)NC2CCCCC2)cc1`: the MIC was > 271 µM.

As to `O=C(/C=C/c1ccccc1)O/C(=N/C1CCCCC1)NC1CCCCC1`, the MIC is > 282 µM.

For `COC(=O)[C@H](CO)NC(=O)/C=C/c1ccc(OC)cc1`, the MIC is > 358 µM.

Take `COC(=O)[C@H](CO)NC(=O)/C=C/c1ccccc1`: the minimum inhibitory concentration (MIC) was > 401 µM.

The molecule `COC(=O)c1coc(/C=C/c2ccc(C)cc2)n1` had an MIC of 25.7 µM (≈ 6.25 µg/mL).

With `C[C@H]1COc2c(N3CCN(C)CC3)c(F)cc3c(=O)c(C(=O)O)cn1c23` [LEVOFLOXACIN], the MIC amounted to 0.54 µM (≈ 0.195 µg/mL).

Take `CC[C@@H](CO)NCCN[C@@H](CC)CO` [ETHAMBUTOL]: the MIC is > 30.5 µM.

Consider `COC(=O)[C@H](CO)NC(=O)/C=C/c1ccc(F)cc1`, for which the minimum inhibitory concentration (MIC) was > 374 µM.

Molecule `COC(=O)[C@@H]1COC(/C=C/c2ccccc2)=N1` showed an MIC of 54.1 µM (≈ 12.5 µg/mL).

Regarding `COC(=O)[C@H](COC(=O)/C=C/c1ccc(C)cc1)NC(=O)/C=C/c1ccc(C)cc1`, the MIC was > 245 µM.
